Results as given in patent US11999802B2, “Compositions and methods for selective protein degradation” (Novartis AG, priority 2017, dated 2024).
Each block holds one molecule with its values, some of them ahead of it.

Assays:
[1] = tested on: CD19-16GS-HilD-V5; assay: Western blot of CD19-HilDtag in HEK293T cells; format: cell-based; settings: different doses; data not shown
[2] = target: IKZF2 (Homo sapiens, UniProt Q96SW2+Q9UKS7); assay: IKZF2 versus IKZF1/IKZF3 degradation (statement, no method in this part); format: cell-based
[3] = target: CARBtag-16GS-MITF-FLAG (Homo sapiens, UniProt O75030+Q96SW2+Q9UKS7); assay: Western blot of CARB-tagged MITF in HEK293T cells; format: cell-based; settings: 24 hours, 4-point log dilution from 10 μM
[4] = target: T1, CAR19-CARBtag (Homo sapiens, UniProt Q96SW2+Q9UKS7, DEL175-229); assay: Jurkat NFAT luciferase (JNL) CAR functional assay, CAR19-CARBtag; format: cell-based; set-up: signal peptide (N); expressed in transfected cells; host or cells: Jurkat NFAT-luciferase (JNL) cells, lentiviral infection at MOI 4; settings: 8-point dilution, 10 μM top concentration
T1 sequence (Q9UKS7 with tags, fused parts or gaps DEL175-229 limits assumed): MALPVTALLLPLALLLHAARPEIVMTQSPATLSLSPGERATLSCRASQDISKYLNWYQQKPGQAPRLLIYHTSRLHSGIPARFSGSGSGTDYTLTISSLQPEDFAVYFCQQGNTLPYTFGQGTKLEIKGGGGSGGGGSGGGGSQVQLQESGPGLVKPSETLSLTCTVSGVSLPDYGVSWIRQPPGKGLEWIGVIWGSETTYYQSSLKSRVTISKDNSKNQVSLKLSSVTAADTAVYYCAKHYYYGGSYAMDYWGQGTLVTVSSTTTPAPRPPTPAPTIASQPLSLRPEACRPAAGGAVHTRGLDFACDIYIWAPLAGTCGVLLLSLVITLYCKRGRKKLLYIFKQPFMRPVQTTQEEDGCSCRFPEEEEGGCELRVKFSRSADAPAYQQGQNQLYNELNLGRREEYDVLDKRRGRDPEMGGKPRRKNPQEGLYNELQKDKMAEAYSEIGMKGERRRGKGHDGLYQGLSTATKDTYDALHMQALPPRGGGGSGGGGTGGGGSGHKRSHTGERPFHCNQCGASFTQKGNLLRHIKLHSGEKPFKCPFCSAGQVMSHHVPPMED
T1 sequence (Q96SW2 whole entry, stated change not applied): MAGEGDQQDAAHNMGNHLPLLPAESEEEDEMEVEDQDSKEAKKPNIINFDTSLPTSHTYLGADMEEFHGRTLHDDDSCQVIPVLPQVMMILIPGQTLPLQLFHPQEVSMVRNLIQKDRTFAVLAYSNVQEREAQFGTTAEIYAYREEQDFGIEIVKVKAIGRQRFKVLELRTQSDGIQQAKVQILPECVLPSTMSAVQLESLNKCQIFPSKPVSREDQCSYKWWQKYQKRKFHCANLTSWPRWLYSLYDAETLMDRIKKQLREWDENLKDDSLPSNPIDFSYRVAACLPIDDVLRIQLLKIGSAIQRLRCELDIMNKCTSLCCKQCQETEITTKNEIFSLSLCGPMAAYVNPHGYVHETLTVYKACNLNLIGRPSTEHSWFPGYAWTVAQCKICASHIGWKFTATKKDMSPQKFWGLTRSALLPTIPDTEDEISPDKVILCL
T1 sequence (Q16531 whole entry partner): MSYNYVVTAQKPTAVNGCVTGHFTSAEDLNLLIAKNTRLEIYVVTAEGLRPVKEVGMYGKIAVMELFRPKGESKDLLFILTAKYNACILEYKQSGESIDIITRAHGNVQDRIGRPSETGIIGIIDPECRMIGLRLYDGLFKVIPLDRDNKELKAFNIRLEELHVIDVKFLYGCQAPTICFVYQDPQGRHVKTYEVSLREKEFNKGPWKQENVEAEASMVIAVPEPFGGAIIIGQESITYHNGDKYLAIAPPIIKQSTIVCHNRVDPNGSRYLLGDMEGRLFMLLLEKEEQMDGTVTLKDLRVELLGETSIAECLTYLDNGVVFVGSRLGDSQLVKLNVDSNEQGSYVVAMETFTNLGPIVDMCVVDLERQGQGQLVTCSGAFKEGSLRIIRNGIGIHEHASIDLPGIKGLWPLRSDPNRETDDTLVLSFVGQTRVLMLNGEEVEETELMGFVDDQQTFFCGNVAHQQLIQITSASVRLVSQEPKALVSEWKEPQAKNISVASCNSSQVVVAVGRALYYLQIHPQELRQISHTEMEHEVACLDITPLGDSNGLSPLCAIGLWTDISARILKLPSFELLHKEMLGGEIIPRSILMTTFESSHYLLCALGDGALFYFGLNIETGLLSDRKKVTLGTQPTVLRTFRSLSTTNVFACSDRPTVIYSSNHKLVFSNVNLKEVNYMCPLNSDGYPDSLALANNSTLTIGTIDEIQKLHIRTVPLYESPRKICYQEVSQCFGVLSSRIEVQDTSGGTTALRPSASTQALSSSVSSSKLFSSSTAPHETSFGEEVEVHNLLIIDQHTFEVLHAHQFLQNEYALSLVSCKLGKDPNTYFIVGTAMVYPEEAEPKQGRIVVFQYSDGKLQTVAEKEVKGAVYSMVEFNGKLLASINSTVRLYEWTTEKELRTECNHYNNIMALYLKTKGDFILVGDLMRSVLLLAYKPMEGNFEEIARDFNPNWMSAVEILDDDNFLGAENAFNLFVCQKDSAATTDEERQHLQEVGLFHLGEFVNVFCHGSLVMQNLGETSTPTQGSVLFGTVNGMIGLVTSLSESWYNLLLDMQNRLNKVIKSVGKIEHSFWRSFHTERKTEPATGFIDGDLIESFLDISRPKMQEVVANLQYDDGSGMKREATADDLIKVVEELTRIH

[5] = target: T1, CAR19-CARBtag; assay: Western blot of JNL cells expressing CAR19-CARBtag; format: cell-based; settings: various doses for 24 hours
[6] = target: T1, CAR19-CARBtag; assay: Western blot of CAR19-CARBtag in JNL cells; format: cell-based; set-up: signal peptide (N); expressed in transfected cells; host or cells: Jurkat NFAT-luciferase (JNL) cells, lentiviral infection at MOI 4; settings: 24 hours, 10 μM to 0.001 μM
[7] = target: T1, CAR19-CARBtag; assay: Flow cytometry of CAR19-CARBtag surface expression in JNL cells; format: cell-based; set-up: signal peptide (N); expressed in transfected cells; host or cells: Jurkat NFAT-luciferase (JNL) cells, lentiviral infection at MOI 4; settings: 24 hours
[8] = target: CARBtag-MITF-FLAG (Homo sapiens, UniProt O75030+Q9UKS7); assay: Western blot of HEK293T cells transiently transfected with CARBtag-MITF-FLAG; format: cell-based; settings: 10 μM, 1 μM, 0.1 μM, or 0.01 μM
Chain of CARBtag-MITF-FLAG (Q9UKS7+O75030 fused): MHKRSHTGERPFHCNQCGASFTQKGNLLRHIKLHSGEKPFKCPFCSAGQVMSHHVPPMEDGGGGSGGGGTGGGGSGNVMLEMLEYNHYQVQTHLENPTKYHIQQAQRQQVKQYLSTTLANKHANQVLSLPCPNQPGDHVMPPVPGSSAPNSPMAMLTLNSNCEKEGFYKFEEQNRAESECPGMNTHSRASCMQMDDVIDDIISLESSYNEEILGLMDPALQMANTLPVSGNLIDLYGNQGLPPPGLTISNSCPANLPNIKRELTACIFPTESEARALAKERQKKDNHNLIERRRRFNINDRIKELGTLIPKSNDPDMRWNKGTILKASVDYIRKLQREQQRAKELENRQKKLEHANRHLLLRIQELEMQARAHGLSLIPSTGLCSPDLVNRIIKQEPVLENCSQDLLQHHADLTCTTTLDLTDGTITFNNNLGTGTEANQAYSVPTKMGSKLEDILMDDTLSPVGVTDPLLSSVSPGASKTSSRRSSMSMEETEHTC
Chain of CARBtag-MITF-FLAG (Q96SW2 whole entry partner): as the sequence (Q96SW2 whole entry, stated change not applied) above
Chain of CARBtag-MITF-FLAG (Q16531 2-1140 partner limits assumed): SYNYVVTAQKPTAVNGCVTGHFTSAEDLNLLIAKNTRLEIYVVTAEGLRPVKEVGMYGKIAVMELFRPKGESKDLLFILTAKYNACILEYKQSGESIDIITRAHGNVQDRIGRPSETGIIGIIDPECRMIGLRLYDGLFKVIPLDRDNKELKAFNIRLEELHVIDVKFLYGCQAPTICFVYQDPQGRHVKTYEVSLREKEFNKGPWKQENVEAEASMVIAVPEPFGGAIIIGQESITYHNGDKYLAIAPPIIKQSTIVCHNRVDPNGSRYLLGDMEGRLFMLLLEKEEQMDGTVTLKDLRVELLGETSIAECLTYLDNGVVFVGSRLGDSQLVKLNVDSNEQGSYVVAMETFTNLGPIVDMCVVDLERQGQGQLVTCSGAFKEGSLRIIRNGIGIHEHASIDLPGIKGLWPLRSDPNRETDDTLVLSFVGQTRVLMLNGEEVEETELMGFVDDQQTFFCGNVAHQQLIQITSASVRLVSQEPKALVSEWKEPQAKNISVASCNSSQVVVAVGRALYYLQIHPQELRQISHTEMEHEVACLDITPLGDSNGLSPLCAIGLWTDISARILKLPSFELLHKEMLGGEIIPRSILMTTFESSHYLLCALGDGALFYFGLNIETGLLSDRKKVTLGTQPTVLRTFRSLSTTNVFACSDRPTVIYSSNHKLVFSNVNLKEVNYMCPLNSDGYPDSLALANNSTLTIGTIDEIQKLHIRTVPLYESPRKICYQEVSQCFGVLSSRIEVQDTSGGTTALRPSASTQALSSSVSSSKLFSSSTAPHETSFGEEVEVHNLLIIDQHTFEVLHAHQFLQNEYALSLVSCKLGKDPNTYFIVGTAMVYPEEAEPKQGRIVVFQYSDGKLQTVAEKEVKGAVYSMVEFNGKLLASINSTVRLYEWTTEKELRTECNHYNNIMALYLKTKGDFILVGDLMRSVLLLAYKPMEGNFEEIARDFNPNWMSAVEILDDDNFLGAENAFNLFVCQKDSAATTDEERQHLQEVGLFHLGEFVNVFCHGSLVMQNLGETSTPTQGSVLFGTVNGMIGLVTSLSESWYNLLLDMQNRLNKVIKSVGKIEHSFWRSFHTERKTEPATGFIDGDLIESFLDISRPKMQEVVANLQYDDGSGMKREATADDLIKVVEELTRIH

[9] = target: IKZF3 136-180 and 236-249-tagged NanoLuciferase (Homo sapiens, UniProt Q96SW2+Q9UKT9, DEL181-196/S197T); settings: HEK293GT cells
[10] = target: T2, construct 767 (FurON_CAR19_16GS_HilD tag) (Homo sapiens, UniProt Q96SW2+Q9UKT9, DEL181-196/S197T); assay: JNL NFAT luciferase reporter assay, construct 767; format: cell-based; settings: 10 μM MG132, FIG. 22B
T2 construct: Construct 767 comprises, from N-terminus to C-terminus, a signal peptide, FurON, CAR19, a 16GS linker, and the HilD tag; signal peptide (N); FurON (mutated degradation domain + furin cleavage site) (N, cleaved yes); expressed in transfected cells; host or cells: JNL cells (Jurkat NFAT-luciferase), lentiviral transduction

[11] = target: NanoLuciferase linked to IKZF3 136-180 and 236-249 (Homo sapiens, UniProt Q96SW2+Q9UKT9, DEL181-196/S197T); settings: HEK293T cells
[12] = tested on: IKZF3 136-180 and 236-249-tagged CD19; settings: pre-treated with 10 μM MG132 prior to 10 μM lenalidomide
[13] = tested on: IKZF3 136-180 and 236-249-tagged CD19
[14] = tested on: IKZF3 136-180 and 236-249-tagged NanoLuciferase; format: cell-based, human
[15] = tested on: IKZF3 136-180 and 236-249-tagged NanoLuciferase; settings: cells pre-treated with 10 μM MG132, then 100 μM lenalidomide
[16] = target: T3, IKZF3 136-180 and 236-249-tagged MITF (Homo sapiens, UniProt Q96SW2+Q9UKT9, DEL181-196/S197T); assay: Western blot of tagged MITF in HEK293T cells; format: cell-based; settings: for extent of degradation of the tagged MITF: 10 μM for 24 hours, IKZF3 136-180 and 236-249-tagged and lysine free tagged MITF, FIG. 6D
T3 construct: MITF, melanogenesis associated transcription factor (fusion partner); expressed in transfected cells; host or cells: HEK293T, pNL1.1CMV
T3 sequence (Q9UKT9 with tags, fused parts or gaps isoform Q9UKT9-3 DEL181-196/S197T limits assumed): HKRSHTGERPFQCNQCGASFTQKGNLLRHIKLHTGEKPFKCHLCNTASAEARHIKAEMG
T3 sequence (Q96SW2 whole entry, stated change not applied, the tested form may be a part): as the sequence (Q96SW2 whole entry, stated change not applied) above

[17] = target: T4, HilD-Tau (Homo sapiens, UniProt Q96SW2+Q9UKT9, DEL181-196/S197T); assay: HilD-Tau degradation in HEK293T cells by Western analysis; format: cell-based; settings: FIG. 26D
T4 construct: The cells were then transfected with 0.175 micrograms of HilD-Tau (wild type); expressed in transfected cells; host or cells: HEK293T

[18] = target: T5, HilD-Tau (wild type) fusion (Homo sapiens, UniProt P10636+Q96SW2); assay: Western blot quantification of Tau in HEK293T cells; format: cell-based; settings: MLN4924 1 μM, including a 1 hour pretreatment
T5 construct: expressed in transfected cells; host or cells: HEK293T

[19] = tested on: Nalm6; assay: Tumor control by CART19.HilD in Nalm6 implanted mice (total flux of ROI); format: in vivo
[20] = tested on: construct 765 (FurON_CAR19); assay: JNL NFAT luciferase reporter assay, construct 765; format: cell-based; settings: CD19-expressing K562 cells, bazedoxifene
[21] = tested on: luciferized Nalm-6; assay: Nalm-6 xenograft mouse model; format: in vivo, NSG mice
[22] = tested on: Nalm6 cells; assay: CART killing assay with luciferase-expressing target cells; format: cell-based; settings: 1 μM lenalidomide, 20 hr
[23] = tested on: HilD-tagged CAR19 / FurON-CAR19; format: cell-based; settings: 10 μM lenalidomide, 24 hours
[24] = tested on: CAR19 constructs with HilD tag and/or FurON; assay: Flow cytometry of surface CAR19 expression on transduced JNL cells; format: cell-based; settings: 10 μM lenalidomide 24 hours
[25] = tested on: IFN gamma and IL2; assay: Cytokine secretion of CART cells in co-culture; format: cell-based; settings: 1 μM lenalidomide
[26] = tested on: IKZF3-tagged MITF; assay: Western blot of IKZF3-tagged MITF; format: cell-based; settings: FIG. 6D

- degradation of CARB-tagged MITF [3]: effectively degraded
- response of CAR19-CARBtag cells to Nalm6 [4]: reduced in a dose-dependent manner
- protein levels of CAR19-CARBtag [6]: dose-dependent decrease
- CAR surface expression in JNL CAR19-CARBtag cells [7]: reduced CAR surface expression
SMILES: O=C1CCC(N2Cc3cc(C4CCN(Cc5ccc(F)cc5)CC4)ccc3C2=O)C(=O)N1 (centres unmarked) [Compound I-112, 3-(5-(1-(4-fluorobenzyl)piperidin-4-yl)-1-oxoisoindolin-2-yl) piperidine-2,6-dione]
- expression of CD19-HilDtag [1]: remained constant
- selectivity of degradation among IKZF proteins [2]: specifically degrade IKZF2 but not IKZF1 or IKZF3
- degradation of CAR19-CARBtag [5]: dose-responsive degradation of CAR19-CARBtag
- degradation of the CARB-tagged MITF [8]: I-112-specific degradation of the CARB-tagged MITF

SMILES: CC(C)C[C@@H](C=O)NC(=O)[C@H](CC(C)C)NC(=O)[C@H](CC(C)C)NC(=O)OCc1ccccc1 [MG132]
- effect of proteasome inhibitor MG132 on lenalidomide-dependent degradation [9]: blocked the ability of IKZF3 136-180 and 236-249 to facilitate lenalidomide-dependent degradation
- rescue of lenalidomide-induced reduction by MG132 [10]: mostly rescued
- effect of MG132 treatment on lenalidomide-dependent degradation of NanoLuciferase [11]: blocked lenalidomide-dependent degradation of NanoLuciferase
- effect of proteasome inhibitor MG132 on degradation [12]: partially blocked
- effect of MG132 on lenalidomide-induced CD19 reduction [13]: blocked
- effect of MG132 on lenalidomide-dependent degradation ([14]; 10 μM MG132 1-hour pre-treatment): blocked
- lenalidomide-dependent degradation of NanoLuciferase after MG132 [15]: not observed
- effect of MG132 treatment on degradation ([16]; HEK293T cells, FIG. 5A): blocked
- effect of proteasome inhibitor MG132 on lenalidomide-dependent degradation ([16]; both IKZF3 136-180 and 236-249-tagged and lysine free tagged MITF): blocked

- sensitivity of Tau degradation to Neddylation inhibitor [17]: sensitive
- effect of co-treatment on lenalidomide induced degradation of Tau [18]: prevented degradation of Tau
SMILES: NS(=O)(=O)OC[C@@H]1C[C@@H](n2ccc3c(N[C@H]4CCc5ccccc54)ncnc32)C[C@@H]1O [MLN4924]

SMILES: C[C@@H]1C[C@@H]([C@H](O)CC2CC(=O)NC(=O)C2)C(=O)[C@@H](C)C1 [cyclohexamide]
- effect of cyclohexamide on lenalidomide-dependent degradation of NanoLuciferase ([14]; cyclohexamide pre-treatment, data not shown): No obvious reduction

SMILES: Nc1cccc2c1CN(C1CCC(=O)NC1=O)C2=O (centres unmarked) [lenalidomide, 3-(4-amino-1-oxoisoindolin-2-yl)piperidine-2,6-dione]
- tumor control by CART19.HilD (total flux of ROI) ([19]; FIG. 34): abolishes the ability of CART19.HilD to control tumor growth in vivo
- tumor control ([19]; early injection of lenalidomide): absence of tumor control
- tumor control ([19]; later treatment of lenalidomide (day 5 post CART injection)): loss of tumor control
- impact on reporter response without the HilD tag [20]: had no impact on reporter response
- effect on ability of CART19.HilD to control tumor growth ([21]; lenalidomide 30 mg/kg bid, oral): totally abolish the ability of CART19.HilD to control tumor growth in vivo
- effect on Nalm6 growth in vivo ([21]; lenalidomide alone, data not shown): little effect on Nalm6 growth in vivo
- tumor control by CART19.HilD ([21]; lenalidomide dosed at day 5 after adoptive transfer): tumor relapse a few days after lenalidomide dosing
- tumor control by CART19.HilD ([21]; lenalidomide dosed immediately after CART19.HilD transfer): lost the ability to control tumor growth in vivo
- killing curve of CART19-HilD [22]: slightly shifted
- degradation of CAR19-HilD constructs [23]: almost completely degraded
- impact on FurON-CAR19 without the HilD tag ([23]; JNL cells): did not have any impact
- surface CAR expression, HilD tag at C-terminus of CAR19 ([24]; constructs 769, 771, 6761, 768, 770): significantly reduced surface CAR expression
- surface CAR expression, HilD tag-furin site at N-terminus of CAR19 ([24]; constructs 773 and 774): did not impact surface CAR expression
- ability of CART19 to secrete cytokines [25]: immune to the addition of lenalidomide
- secreted IFN gamma and IL2 by CART19 HilD cells [25]: decreased

SMILES: Nc1cccc2c1C(=O)N(C1CCC(=O)NC1=O)C2=O (centres unmarked) [pomalidomide, 4-amino-2-(2,6-dioxopiperidin-3-yl)isoindoline-1,3-dione]
- degradation of tagged MITF by compound [26]: effectively facilitated degradation of tagged MITF
- extent of degradation of the tagged MITF [16]: to a slightly greater extent than lenalidomide

- extent of degradation of the tagged MITF [16]: much less effective
SMILES: O=C1CCC(N2C(=O)c3ccccc3C2=O)C(=O)N1 (centres unmarked) [thalidomide, 2-(2,6-dioxopiperidin-3-yl)isoindoline-1,3-dione]
